From US20230365577A1, “Photodynamic Therapy and Diagnosis” (RMW CHO Group Limited, priority 2020, published 2023)
Where a name gives a salt, the structure may show the parent alone. Read-outs that look alike come from different tables or passages of the source.

Tests used:
[1] = Singlet oxygen (1O2) production rate; type: physicochemical
Text: The production of singlet oxygen (^1O2), cellular phototoxicity and light-independent cytotoxicity (“dark toxicity”) of a number of phyllochlorin analogues were compared against chlorin e4 disodium and Talaporfin sodium (mono-L-aspartyl chlorin e6), the active ingredient of Laserphyrin™.

[2] = test system: SKOV3 ovarian cancer cells; assay: Inherent cytotoxicity (dark toxicity) in SKOV3 cells (AlamarBlue viability); type: cell-based, Human
Description: (§1) Human ovarian cancer cell line SKOV3 (ATCC #HTB-77) was maintained in Dulbecco's Modified Eagle Medium/Nutrient Mixture F-12 (DMEM/F-12), supplemented with 10% v/v Fetal Bovine Serum, 100 U/mL penicillin and 100 µg/mL streptomycin. Monolayer cultures were grown in a humidified incubator at 37° C. with 5% CO2.
(§2) For in vitro experiments, photosensitizers (stock solution 5.5 mM in 100% DMSO) were diluted in cell culture media (Dulbecco's Modified Eagle Medium/Nutrient Mixture F-12) supplemented with 10% v/v Fetal Bovine Serum, 100 U/mL penicillin, 100 µg/mL streptomycin and 10% w/v Kollidon-12. Once cells had reached ˜80% confluence, spent media was replaced with media containing photosensitizer and cells were incubated for the desired period of time to allow photosensitizer uptake.
(§3) SKOV3 cells were seeded in 96-well black wall plates (Greiner #655090) at a cell density of 5000 cells in 100 μl culture medium per well. On reaching ˜60% confluence, media was aspirated and replaced with fresh media containing the relevant phyllochlorin analogue from 0-100 μM in DMSO. Cells were incubated for a further 24 hours, allowing uptake of phyllochlorin analogues.
To test for inherent cytotoxicity (i.e. “dark toxicity”) of the phyllochlorin analogue the culture media was replaced after 24 hours with fresh media containing 10% (v/v) AlamarBlue Cell Viability Reagent (ThermoFisher) and cells incubated at 37° C. for 6 hours. Untreated cells were used as a control. Fluorescence (Ex 555 nm/Em 596 nm) was measured using a Cytation 3 Multimode Plate Reader (Biotek), and cytotoxicity assessed according to the % viable cells remaining. All measurements were made in quadruplicate.
(§4) For comparative purposes, phyllochlorin analogues were tested and compared against both chlorin e4 disodium and Talaporfin sodium, a clinically approved photosensitizer used in the photodynamic treatment of lung cancers. Phototoxicity IC90 values and dark toxicity IC10 values were calculated using a log[inhibitor]-vs normalized response dose curve with variable slope, using the formula Y=100/(1+(IC90/X)^HillSlope (phototoxicity IC90) or Y=100/(1+(IC10/X)^HillSlope (dark toxicity IC10).

[3] = test system: SKOV3 ovarian cancer cells; assay: Phototoxicity in SKOV3 cells (652 nm laser, AlamarBlue viability); type: cell-based, Human
Description: as §1, §2
as §3, with “confluence, so” for “confluence,”
To test for phototoxicity, cells incubated with phyllochlorin analogues (0-10 μM in DMSO) had culture media replaced after 24 hours (as above) and were then exposed to a 652 nm laser (Invion) with laser density at 50 mW/cm^2 for 5 mins (total 15 J/cm^2). Following activation, cells were cultured for a further 24 hours. Media was then replaced with fresh media containing AlamarBlue, and % viable cells remaining assessed as above. Controls included cells treated with phyllochlorin analogues but not activated by laser light; cells without phyllochlorin analogue treatment but with laser light; and untreated controls. All measurements were made in quadruplicate.
as §4

[4] = SKOV3, 24 h uptake, 652 nm laser 50 mW/cm2 5 mins (15 J/cm2), viability 24 h later, read-out: Cellular Toxicity: Phototoxicity IC90
[5] = Homo sapiens, SK-OV-3, light or radiation study, SKOV3, 24 h uptake, 652 nm laser 50 mW/cm2 5 mins (15 J/cm2), viability 24 h later, read-out: Cellular Toxicity: Phototoxicity IC90
[6] = Homo sapiens, SK-OV-3, light or radiation study, SKOV3, read-out: Phototoxicity apparent IC90
[7] = Homo sapiens, SK-OV-3, light or radiation study, read-out: Cellular Toxicity: Phototoxicity IC90, SKOV3, 24 h uptake, 652 nm laser 50 mW/cm2 5 mins (15 J/cm2), viability 24 h later

Row | Singlet Oxygen Production (slope) 1O2 [1] | Compound | Cellular Toxicity: Dark toxicity IC10 ([2]; human, 24 h) [nM] | IC90 [3, 5] [nM] | other results
1 | 423.4 | 3-((7S,8S)-18-ethyl-2,5,8,12,17-pentamethyl-13-vinyl-7H,8H-porphyrin-7-yl)-N-(2-(2-hydroxyethoxy)ethyl)-N-methylpropanamide zinc complex [Compound 21] |  |  | Fold decrease in the rate of ROS production on Zn2+ complexation ([1]; compound 21 versus compound 18): ~2.5 fold; Cellular Toxicity: Dark toxicity IC10 [2]: 8170 nM; IC90 [3, 4]: 4770 nM
2 | 404.7 | 3-((7S,8S)-18-ethyl-2,5,8,12,17-pentamethyl-13-vinyl-7H,8H-porphyrin-7-yl)-N-methyl-N-(3-(((2S,3R,4S,5S,6R)-3,4,5-trihydroxy-6-(hydroxymethyl)tetrahydro-2H-pyran-2-yl)thio)propyl)propanamide zinc complex [Compound 19] |  |  | Cellular Toxicity: Dark toxicity IC10 [2]: 20200 nM; IC90 [3, 4]: 12800 nM
3 |  | C=Cc1c(C)c2cc3nc(c(C)c4cc(C)c(cc5nc(cc1[nH]2)C(C)=C5CC)[nH]4)[C@@H](CCC(=O)O)[C@@H]3C [Compound 1a, phyllochlorin potassium salt] | 12410 |  | Singlet Oxygen Production (slope) 1O2 ([1]; potassium salt): 760.9; IC90 ([3]; SKOV3, 24 h uptake, 652 nm laser 50 mW/cm2 5 mins (15 J/cm2), viability 24 h later, potassium salt, read-out: Cellular Toxicity: Phototoxicity IC90): 470 nM
4 |  | C=Cc1c(C)c2cc3nc(c(C)c4cc(C)c(cc5nc(cc1[nH]2)C(C)=C5CC)[nH]4)[C@@H](CCC(=O)O)[C@@H]3C [Compound 1b, phyllochlorin lithium salt] | 22130 |  | Singlet Oxygen Production (slope) 1O2 ([1]; lithium salt): 841.7; IC90 ([3]; SKOV3, 24 h uptake, 652 nm laser 50 mW/cm2 5 mins (15 J/cm2), viability 24 h later, lithium salt, read-out: Cellular Toxicity: Phototoxicity IC90): 1400 nM
5 | 2191.0 | C=Cc1c(C)c2cc3nc(c(C)c4cc(C)c(cc5nc(cc1[nH]2)C(C)=C5CC)[nH]4)[C@@H](CCC(=O)N(C)CCOCCOCCO)[C@@H]3C [Compound 4, 3-((7S,8S)-18-ethyl-2,5,8,12,17-pentamethyl-13-vinyl-7H,8H-porphyrin-7-yl)-N-(2-(2-(2-hydroxyethoxy)ethoxy)ethyl)-N-methylpropanamide] | 16410 | 120 | 
6 | 2385.0 | C=Cc1c(C)c2cc3nc(c(C)c4cc(C)c(cc5nc(cc1[nH]2)C(C)=C5CC)[nH]4)[C@@H](CCC(=O)N(C)CCCO)[C@@H]3C [Compound 5, 3-((7S,8S)-18-ethyl-2,5,8,12,17-pentamethyl-13-vinyl-7H,8H-porphyrin-7-yl)-N-(3-hydroxypropyl)-N-methylpropanamide] | 20820 | 50 | Rate of ROS production relative to chlorin e4 disodium and Talaporfin sodium [1]: more than double; IC90 [3, 6]: < 100 nM
7 | 1494.0 | C=Cc1c(C)c2cc3nc(c(C)c4cc(C)c(cc5nc(cc1[nH]2)C(C)=C5CC)[nH]4)[C@@H](CCC(=O)N(C)CCCCCO)[C@@H]3C [Compound 7, 3-((7S,8S)-18-ethyl-2,5,8,12,17-pentamethyl-13-vinyl-7H,8H-porphyrin-7-yl)-N-(5-hydroxypentyl)-N-methylpropanamide] | 14270 | 50 | IC90 [3, 6]: < 100 nM
8 | 1314.0 | C=Cc1c(C)c2cc3nc(c(C)c4cc(C)c(cc5nc(cc1[nH]2)C(C)=C5CC)[nH]4)[C@@H](CCC(=O)N(C)CCCCCS[C@@H]1O[C@H](CO)[C@@H](O)[C@H](O)[C@H]1O)[C@@H]3C [Compound 8, 3-((7S,8S)-18-ethyl-2,5,8,12,17-pentamethyl-13-vinyl-7H,8H-porphyrin-7-yl)-N-methyl-N-(5-(((2S,3R,4S,5S,6R)-3,4,5-trihydroxy-6-(hydroxymethyl)tetrahydro-2H-pyran-2-yl)thio)pentyl)propanamide] | 12550 | 60 | IC90 [3, 6]: < 100 nM; Fold increase in cellular phototoxicity compared to compound 2 ([3]; SKOV3, IC90): approximately 4 fold
9 | 1691.0 | C=Cc1c(C)c2cc3nc(c(C)c4cc(C)c(cc5nc(cc1[nH]2)C(C)=C5CC)[nH]4)[C@@H](CCC(=O)N(C)CCO)[C@@H]3C [Compound 10, 3-((7S,8S)-18-ethyl-2,5,8,12,17-pentamethyl-13-vinyl-7H,8H-porphyrin-7-yl)-N-(2-hydroxyethyl)-N-methylpropanamide] | 14940 | 160 | 

Row | Compound | Singlet Oxygen Production (slope) 1O2 [1] | Cellular Toxicity: Dark toxicity IC10 ([2]; human, 24 h) [nM] | IC90 [3, 5] [nM] | other results
10 | C=Cc1c(C)c2cc3nc(c(C)c4cc(C)c(cc5nc(cc1[nH]2)C(C)=C5CC)[nH]4)[C@@H](CCC(=O)O)[C@@H]3C [Compound 1d, phyllochlorin arginine salt] | 833.9 | 18150 |  | IC90 ([3]; read-out: Cellular Toxicity: Phototoxicity IC90, SKOV3, 24 h uptake, 652 nm laser 50 mW/cm2 5 mins (15 J/cm2), viability 24 h later): 1420 nM
11 | C=Cc1c(C)c2cc3nc(c(C)c4cc(C)c(cc5nc(cc1[nH]2)C(C)=C5CC)[nH]4)[C@@H](CCC(=O)O)[C@@H]3C [Compound 1e, phyllochlorin meglumine salt] | 938.8 | 20730 |  | IC90 [3, 4]: 1790 nM
12 | C=Cc1c(C)c2cc3nc(c(C)c4cc(C)c(cc5nc(cc1[nH]2)C(C)=C5CC)[nH]4)[C@@H](CCC(=O)N(C)CCC[S+]([O-])[C@@H]1O[C@H](CO)[C@@H](O)[C@H](O)[C@H]1O)[C@@H]3C (stereo partly drawn) [Compound 9, 3-((7S,8S)-18-ethyl-2,5,8,12,17-pentamethyl-13-vinyl-7H,8H-porphyrin-7-yl)-N-methyl-N-(3-(((2S,3R,4S,5S,6R)-3,4,5-trihydroxy-6-(hydroxymethyl)tetrahydro-2H-pyran-2-yl)thio)propyl)propanamide sulphoxide] | 1396.0 | 70240 |  | IC90 [3, 7]: 190 nM
13 | C=Cc1c(C)c2cc3nc(c(C)c4cc(C)c(cc5nc(cc1[nH]2)C(C)=C5CC)[nH]4)[C@@H](CCC(=O)N(C)CCCS[C@@H]1O[C@H](COC(C)=O)[C@@H](OC(C)=O)[C@H](OC(C)=O)[C@H]1OC(C)=O)[C@@H]3C [Compound 11, (2R,3R,4S,5R,6S)-2-(acetoxymethyl)-6-((3-(3-((7S,8S)-18-ethyl-2,5,8,12,17-pentamethyl-13-vinyl-7H,8H-porphyrin-7-yl)-N-methylpropanamido)propyl)thio)tetrahydro-2H-pyran-3,4,5-triyl triacetate] | 1434.0 | 29000 |  | IC90 [3, 7]: 500 nM
14 | C=Cc1c(C)c2cc3nc(c(C)c4cc(C)c(cc5nc(cc1[nH]2)C(C)=C5CC)[nH]4)[C@@H](CCC(=O)N(C)CCCS[C@@H]1O[C@H](COC(=O)[C@@H](N)C(C)C)[C@@H](O)[C@H](O)[C@H]1O)[C@@H]3C [Compound 12, ((2R,3S,4S,5R,6S)-6-((3-(3-((7S,8S)-18-ethyl-2,5,8,12,17-pentamethyl-13-vinyl-7H,8H-porphyrin-7-yl)-N-methylpropanamido)propyl)thio)-3,4,5-trihydroxytetrahydro-2H-pyran-2-yl)methyl L-valinate hydrochloride] | 1121.0 | 28360 |  | IC90 [3, 7]: 180 nM
15 | C=Cc1c(C)c2cc3nc(c(C)c4cc(C)c(cc5nc(cc1[nH]2)C(C)=C5CC)[nH]4)[C@@H](CCC(=O)N[C@H]1C(O)O[C@H](CO)[C@@H](O)[C@@H]1O)[C@@H]3C (stereo partly drawn) [Compound 13, phyllochlorin 2-deoxyglucosamine-propylamide] | 1423.0 | 13020 |  | IC90 [3, 7]: 120 nM
